We go through one molecule from US9463188B2, “Osteopontin production inhibitor containing dictyopyrone derivative or dihydrodictyopyrone derivative as active ingredient” (TOHOKU UNIVERSITY, priority 2013, dated 2016).

This assay concerns human OPN promoter (pOPN1-luc) in A549/OPNluc cells. In words: Luciferase assay: luciferase expression under control of OPN promoter. The class given is cell-based. The text has this:
A reporter vector pOPN1-luc obtained by inserting a human OPN promoter sequence (−765 to 23) into the multiple cloning site of pGL-3 basic vector (Promega) expresses luciferase when transfected into animal cells. This pOPN1-luc was transfected into a human non-small cell lung cancer-derived cell line A549 together with pPUR (Clontech) that expresses a puromycin resistance gene (puromycin-N-acetyl-transferase gene), and cells that could grow in a puromycin-supplemented medium and expressed luciferase were selected. The selected cells were named A549/OPNluc cells and used for observation of luciferase expression inhibitory effect under control of OPN promoter, as described later.
A test compound was added to a culture liquid containing A549/OPNluc cells to observe its influence on the amount of luciferase expressed in the cells. Here, it can be considered that when the test compound has cytotoxity or cell growth-suppressing effect, the total expression level of luciferase is reduced due to a reduction in the number of living cells that depends on the concentration of the test compound, and therefore the luciferase expression inhibitory effect of the test compound under control of OPN promoter cannot be properly evaluated. For this reason, WST assay for quantification of cell proliferation ability or cell viability by colorimetric measurement was first performed to determine IC50 (concentration for 50% inhibition of cell growth) of the test compound for cell growth. Then, luciferase activity measurement was performed to determine EC50 (concentration for 50% inhibition of luciferase expression) of the test compound for luciferase expression under control of OPN promoter.
The same steps as in the above-described WST assay were performed in which only DMSO (control) or the diluted test compound (sample) solution was added in an amount of 0.5 μL to each well containing the cell suspension to achieve 200-fold dilution, and the solution in each well was mixed with a vortex mixer, and the 96-well plate was incubated in a CO2 incubator (at 37° C. and 5% CO2) for 48±4 hours.
A luciferase reagent was prepared by dissolving Luciferase Assay Substrate (hereinafter, referred to as “LAS”) supplied in Luciferase Assay Systems (Promega: Cat# E1500) with Luciferase Assay Buffer (LAB). 5× Cell Culture Lysis Reagent (hereinafter, referred to as “CCLR”) was diluted with water 5-fold to prepare 1×CCLR.
After the incubation for 48±4 hours, the medium in each well was completely removed, and 50 μL of 1×CCLR was dispensed into each well. The 96-well plate was allowed to stand at room temperature for 30 minutes, and then 1×CCLR in each well was used as an assay sample. The luciferase reagent of 100 μL was placed in a tube for chemiluminescence measurement, and 20 μL of the assay sample was added to the tube and mixed with the luciferase reagent to measure chemiluminescence (Relative Luminescence Intensity: RLU) using Tuner Design Luminometer 20/20 (Promega).
The RLU values of the control wells and the RLU values of the sample wells at each concentration were input into an Excel file, and the percentages of RLU values of the sample wells at each concentration with respect to the average of RLU values of the control wells were determined. From these values, a fitted curve was determined by the method of least squares to calculate EC50.

For `CCCCCCCCCCCC(=O)[C@H]1C(=O)O[C@@H](C)C[C@@H]1C` [Chemical formula 3], for the setting “EC50 luciferase assay vs IC50 WST assay”, the “EC50 value relative to respective IC50 value” was “½”. For the same molecule, the EC50 (Homo sapiens, 48±4 hours, read-out: EC50 (concentration for 50% inhibition of luciferase expression under control of OPN promoter)) was determined as 15.9 µM.
